These are literature values, as cited in patent publication US11008566B2, “Method for obtaining antibody” (Chiome Bioscience Inc., priority 2016, dated 2021).

pKd: −log10 of the molar value.

For the data set the following is noted: antibody drugs, Non Patent Literatures 1 and 2.

Regarding “Lucentis: antibody drug (registered trademark), high-affinity antibody”, the pKd – broadly, the Kd on a negative log10 scale, so that one unit is a factor of ten – was 10.34.
